IC50 data for two compounds are collected here from ChEMBL document CHEMBL2417371, “Herbimycins D-F, ansamycin analogues from Streptomyces sp. RM-7-15” (J Nat Prod, 2013).

The subject of this experiment is A549. The experiment is described as follows: Cytotoxicity against human A549 cells after 2 days by AlamarBlue assay. As to conditions: A549, 48 h. (Alamar Blue is a resazurin reagent that responds to reducing activity.)

Take `COC1=C2C[C@@H](C)C[C@H](OC)[C@H](O)[C@@H](C)/C=C(\C)[C@H](OC(N)=O)[C@@H](OC)/C=C\C=C(/C)C(=O)NC(=CC1=O)C2=O` [GELDANAMYCIN]: the IC50 (as a rule, the concentration at which inhibition is half-maximal) stood at 0.15 µM.

In turn, `CO[C@H]1[C@@H](OC)C[C@H](C)[C@@H](OC)C2=CC(=O)C=C(NC(=O)/C(C)=C/C=C/[C@H](OC)[C@@H](OC(N)=O)/C(C)=C/[C@@H]1C)C2=O` [HERBIMYCIN] yielded an IC50 of 0.15 µM.
